Like-named read-outs stand apart in the source and are kept apart here.
What was measured:
GL-3 = test: Phase II study in Fabry patients, GL-3 levels (kidney, skin, urine, plasma); type: in vivo, Fabry patients (human)
Procedure: Study Design. A two-arm design was planned. In one arm, eligible patients were given 150 mg of DGJ-HCl every other day for 12 weeks, with an extension up to 48 weeks. In the second arm, escalating doses of 25, 100, and then 250 mg b.i.d. over 6 weeks, followed by 50 mg/day for the remainder of the study.
GL-3 deposits. Skin, kidney and heart biopsies will be performed at baseline, 3 months and six months and evaluated for GL-3 deposits in skin fibroblasts, cardiac myocytes, and various renal cells.
GL-3 levels. […] Urine and plasma GL-3 levels at baseline and after treatment as assessed by liquid chromatography mass spectrometry were available for 10 patients. […] For the few patients that had elevated levels of GL-3 in urine or plasma at baseline, the results were difficult to interpret due to high intra-patient variability.
Skin GL-3 levels at baseline and after treatment as assessed by light and electron microscopy are available for 10 patients.

[1] = Phase I ascending single oral dose study, pharmacokinetics; type: in vivo, healthy volunteers (human); details: for half-life / Tmax / CL renal / AUC(0-inf) / AUC(0-t) / Cmax: male, human; for half-life / Tmax / AUC(0-inf) / AUC(0-t) / Cmax: plasma; for CL renal / Ae, cumulative percentage of DGJ excreted over the 12-hour postdose period: urine; for AUC(0-inf) / AUC(0-t) / Cmax: geometric mean
Procedure: This example describes a randomized, double blind, placebo controlled Phase I study of ascending single oral dose of DGJ to evaluate the safety, tolerability and pharmacokinetics of DGJ in healthy volunteers.
Study Design and Duration. […] Dose escalation to the next dose level (i.e., next group) proceeded following review of safety and tolerability of the previous group(s). Subjects were housed in the treatment facility from 14 hours prior to dosing until 24 hours after dosing. Meals were controlled by schedule and subjects remained abulatory for 4 hours post drug administration.
Study Population. Subjects were healthy, non-institutionalized, non-smoking male volunteers between 19 and 50 years of age (inclusive) consisting of members of the community at large.
Pharmacokinetic Sampling. Blood samples (10 mL each) were collected in blood collection tubes containing EDTA before dosing and at the following times thereafter: 0.25, 0.5, 0.75, 1, 1.5, 2, 3, 4, 5, 6, 8, 10, 12, 16 and 24 hours. Blood samples were cooled in an ice bath and centrifuged under refrigeration as soon as possible. Plasma samples were divided into two aliquots an dstored at […] pending assay. At the end of the study, all samples were transferred to MDS Pharma Services Analytical Laboratories (Lincoln) for analysis.
Pharmacokinetic parameters were summarised by treatment group using descriptive statistics (arithmetic means, standard deviations, coefficients of variation, sample size, minimum, maximum and median). In addition, geometric means were calculated for AUC0-t, AUCinf and Cmax.

[2] = Phase II study in Fabry patients, cardiac, renal and central nervous system function; type: in vivo, Fabry patients (human); details: after 12 to 48 weeks of treatment
Procedure: Study Design. A two-arm design was planned. […] In the second arm, escalating doses of 25, 100, and then 250 mg b.i.d. over 6 weeks, followed by 50 mg/day for the remainder of the study. Cardiac anaylsis. In addition to the biopsies described above, MRIs and echocardiogram with strain rate evaluations will be performed at baseline, 3 and 6 months to assess cardiac morphology (e.g., left ventricular hyertrophy) and cardiac function (e.g., congestive heart failure, ischemia, infarction, arrhythmia). […] Hypertension will also be ealuated since hypertension (associated with renal dysfunction) can increase the risk for hemorrhagic stroke.

[3] = Phase Ib twice daily oral dose study, safety and tolerability; type: in vivo, healthy volunteers (human)
Procedure: Study Design and Duration. […] Subjects were housed in the treatment facility from 14 hours prior to dosing until 24 hours after dosing. Meals were controlled by schedule and subjects remained abulatory for 4 hours post drug administration
Safety and Tolerability Assessments.
WBC α-GAL A Enzymatic Activity Sampling. Blood samples (10 mL each) were collected in blood collection tubes containing EDTA and WBC extracted before dosing and at the following times thereafter: 100 hours, 150 hours, and 336 hours. Samples were treated as described above, and WBC α-Gal A enzymatic activity levels were determined as described in Desnick, R. J. (ed) Enzyme therapy in genetic diseases. Vol 2. Alan R Liss, New York, pp 17-32. Statistical Analysis. Safety data including laboratory evaluations, physical exams, adverse events, ECG monitoring and vital signs assessments were summarized by treatment group and point of time of collection. Descriptive statistics (arithmetic mean, standard deviation, median, minimum and maximum) were calculated for quantitative safety data as well as for the difference to baseline. Frequency counts were compiled for classification of qualitative safety data. In addition, a shift table describing out of normal range shifts was provided for clinical laboratory results. A normal-abnormal shift table was also presented for physical exam results and ECGs. […]

α-Gal A = test: Phase II study in Fabry patients, α-Gal A activity in white blood cells; type: in vivo, Fabry patients (human)
Procedure: Study Design. A two-arm design was planned. […] In the second arm, escalating doses of 25, 100, and then 250 mg b.i.d. over 6 weeks, followed by 50 mg/day for the remainder of the study.
α-Gal A activity. In addition, α-Gal A activity will be assessed in fractionated tissue obtained from biopsies and in blood leukocytes and plasma (from blood collected at baseline and every month).
α-Gal A Activity. […] Eight patients in the study received an acending dose of 25, 100, and then 250 mg b.i.d. over 6 weeks, followed by 50 mg/day for the remainder of the study (represented on FIG. 2 by closed circles). For purposes of calculating the percentage of normal in the table, the level of α-GAL that is normal was derived by using the average of the levels of α-GAL in white blood cells of 15 healthy volunteers from the multiple-dose Phase I study.

OCC1NCC(O)C(O)C1O (centres unmarked) [DGJ, 1-deoxygalactonojirimycin]
kidney GL-3 by electron microscopy, one patient (GL-3; 12 weeks of treatment, mesangial cells, glomerular endothelium, distal tubules): observed decrease in GL-3 | kidney GL-3 by electron microscopy, second patient (GL-3; 24 weeks of treatment, same kidney cell types, not independently conclusive (lower baseline GL-3)): showed a decrease of GL-3 levels | GL-3 in other kidney cell types including interstitial capillaries (GL-3; both patients): the decreases were not significant | urine and plasma GL-3 levels by liquid chromatography mass spectrometry (GL-3; most of 10 patients, baseline and after treatment): normal or near normal both before and after treatment | skin GL-3 levels by light and electron microscopy (GL-3; seven of 10 patients, baseline and after treatment): normal or near normal both before and after treatment | time of peak concentrations, on average ([1]; all dose levels (25-675 mg single dose)): approximately 3 hours | increase of AUC and Cmax with dose ([1]; doses increased from 25 mg to 225 mg): dose-proportional manner | half-life ([1]; oral, 25-675 mg single dose, read-out: mean half-life across all dose levels): 3 to 4.6 h | Tmax ([1]; single oral dose 25 mg): 3 h | half-life ([1]; single oral dose 25 mg, read-out: t1/2 (converted)): 3.04 h | Tmax ([1]; single oral dose 75 mg): 2.92 h | half-life ([1]; single oral dose 75 mg, read-out: t1/2 (converted)): 4.05 h | Tmax ([1]; single oral dose 225 mg): 3.17 h | half-life ([1]; single oral dose 225 mg, read-out: t1/2 (converted)): 4.62 h | Tmax ([1]; single oral dose 675 mg): 2.67 h | half-life ([1]; single oral dose 675 mg, read-out: t1/2 (converted)): 4.19 h | CL renal ([1]; oral, as doses increased from 25 mg to 675 mg, read-out: mean renal clearance): 98.3 to 128 mL/min | CL renal ([1]; single oral dose 25 mg, read-out: CLR (converted)): 98.3 mL/min | CL renal ([1]; single oral dose 75 mg, read-out: CLR (converted)): 95.5 mL/min | CL renal ([1]; single oral dose 225 mg, read-out: CLR (converted)): 126 mL/min | CL renal ([1]; single oral dose 675 mg, read-out: CLR (converted)): 128 mL/min | AUC(0-inf) ([1]; single oral dose 25 mg): 1130 ng·h/mL | AUC(0-t) ([1]; single oral dose 25 mg): 1090 ng·h/mL | Cmax ([1]; single oral dose 25 mg): 201 ng/mL | AUC(0-inf) ([1]; single oral dose 75 mg): 4730 ng·h/mL | AUC(0-t) ([1]; single oral dose 75 mg): 4660 ng·h/mL | Cmax ([1]; single oral dose 75 mg): 685 ng/mL | AUC(0-inf) ([1]; single oral dose 225 mg): 11400 ng·h/mL | AUC(0-t) ([1]; single oral dose 225 mg): 11200 ng·h/mL | Cmax ([1]; single oral dose 225 mg): 2000 ng/mL | AUC(0-inf) ([1]; single oral dose 675 mg): 35700 ng·h/mL | AUC(0-t) ([1]; single oral dose 675 mg): 35300 ng·h/mL | Cmax ([1]; single oral dose 675 mg): 6490 ng/mL | Ae, cumulative percentage of DGJ excreted over the 12-hour postdose period ([1]; single oral dose 25 mg): 8.78% | Ae, cumulative percentage of DGJ excreted over the 12-hour postdose period ([1]; single oral dose 75 mg): 23.4% | Ae, cumulative percentage of DGJ excreted over the 12-hour postdose period ([1]; single oral dose 225 mg): 40.3% | Ae, cumulative percentage of DGJ excreted over the 12-hour postdose period ([1]; single oral dose 675 mg): 39.6% | cardiac, renal and central nervous system function [2]: no clinically meaningful changes | adverse events (AEs) ([3]; after 50 mg b.i.d. or 150 mg b.i.d.): no subject presented with AEs | safety and tolerability ([3]; healthy male subjects, 50 mg b.i.d. and 150 mg b.i.d., seven days): safe and well tolerated | enzyme activity at the lowest dose evaluated (α-Gal A; 25 mg b.i.d., Fabry patients): increased enzyme activity | restoration of α-Gal A activity levels by titration (α-Gal A; as measured in white blood cells): to the normal range | enzyme activity after dose reduction (α-Gal A; dose reduced after 6 weeks to 50 mg/day): remains elevated | patients with an increase in the activity of the enzyme deficient in Fabry disease (α-Gal A; first eleven patients treated for at least 12 weeks, white blood cells): 10 of the 11
